Test results as given in patent publication US20220002373A1, “SINGLE-CHAIN INSULIN ANALOGUES WITH POLY-ALANINE C-DOMAIN SUB-SEGMENTS” (CASE WESTERN RESERVE UNIVERSITY, priority 2018, published 2022).

System: Sprague-Dawley rats made diabetic with streptozotocin
Assay: Pharmacodynamics after subcutaneous injection in a rat model of diabetes mellitus (blood-glucose concentration over time)
Format: in vivo
Conditions: dose equivalent in nanomoles to 15 μg insulin lispro per 300-gram rat, relative to insulin lispro, FIG. 6
Description: The dose was 15 μg of insulin lispro per 300-gram rat; doses of the SCIs were equivalent in units of nanomoles per 300-gram rat (i.e., micrograms corrected for respective molecular masses).

## SCI-4: 57-residue single-chain insulin analogue, C domain EAAAAA, substitutions His^A8, Glu^A14, Asp^B28, Pro^B29; expressed in Pichia pastoris (FVNQHLCGSHLVEALYLVCGERGFFYTDPTEAAAAAGIVEQCCHSICSLEQLENYCN)
  integrated potency (area over the curve): essentially identical to that of insulin lispro
  offset of action / duration of action (tail of insulin action): essentially identical to that of insulin lispro
  onset of action: essentially identical to that of insulin lispro
